Legend:
surinam grass = test: Test B pre/postemergence surinam grass; assay type: in vivo, Brachiaria decumbens; details: for B. signalgrass plant response rating: scale of 0 to 10 where 0 is no effect and 10 is complete control
In short: (§1)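 Herbicidal effect was estimated by eye on a ten-point control scale after plants spent twelve to sixteen days in a greenhouse following soil or foliar treatment. Foliar sprays targeted plants at one to four leaves; all doses were formulated in a non-phytotoxic solvent with surfactant.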

cocklebur = test: Test B pre/postemergence cocklebur; assay type: in vivo, Xanthium strumarium; details: for Cocklebur plant response rating: scale of 0 to 10 where 0 is no effect and 10 is complete control
In short: as §1

corn = test: Test B pre/postemergence corn; assay type: in vivo, Zea mays; details: for Corn plant response rating: scale of 0 to 10 where 0 is no effect and 10 is complete control
In short: as §1

crabgrass = test: Test B pre/postemergence crabgrass; assay type: in vivo, Digitaria sanguinalis; details: for Crabgrass plant response rating: scale of 0 to 10 where 0 is no effect and 10 is complete control
In short: as §1

giant foxtail = test: Test B pre/postemergence giant foxtail; assay type: in vivo, Setaria faberii; details: for Giant foxtail plant response rating: scale of 0 to 10 where 0 is no effect and 10 is complete control
In short: as §1

morningglory = test: Test B pre/postemergence morningglory; assay type: in vivo, Ipomoea hederacea; details: for Morningglory plant response rating: scale of 0 to 10 where 0 is no effect and 10 is complete control
In short: as §1

pigweed = test: Test B pre/postemergence pigweed; assay type: in vivo, Amaranthus retroflexus; details: for Redroot pigweed plant response rating: scale of 0 to 10 where 0 is no effect and 10 is complete control
In short: as §1

rape = test: Test B pre/postemergence rape; assay type: in vivo, Brassica napus; details: for Rape plant response rating: scale of 0 to 10 where 0 is no effect and 10 is complete control
In short: as §1

soybean = test: Test B pre/postemergence soybean; assay type: in vivo, Glycine max; details: for Soybean plant response rating: scale of 0 to 10 where 0 is no effect and 10 is complete control
In short: as §1

sugar beet = test: Test B pre/postemergence sugar beet; assay type: in vivo, Beta vulgaris; details: for Sugarbeets plant response rating: scale of 0 to 10 where 0 is no effect and 10 is complete control
In short: as §1

wild oat = test: Test B pre/postemergence wild oat; assay type: in vivo, Avena fatua; details: for Wild oats plant response rating: scale of 0 to 10 where 0 is no effect and 10 is complete control
In short: as §1

purple nutsedge = test: Test B pre/postemergence purple nutsedge; assay type: in vivo, Cyperus rotundus; details: for Nutsedge plant response rating: scale of 0 to 10 where 0 is no effect and 10 is complete control
In short: as §1

rice = test: Test B flood test rice; assay type: in vivo, Oryza sativa; details: Pre-emergence
In short: (§2)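 Each value is a visual injury score relative to controls, with 10 meaning complete control and 0 no effect. Evaluation took place twelve to sixteen days after the 2-leaf-stage plants were treated and kept in the greenhouse.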

smallflower flatsedge = test: Test B flood test smallflower flatsedge; assay type: in vivo, Cyperus difformis; details: Pre-emergence
In short: as §2

duck salad = test: Test B flood test duck salad; assay type: in vivo, Heteranthera limosa; details: Pre-emergence
In short: as §2

bamyardgrass = test: Test B flood test barnyardgrass; assay type: in vivo, Echinochloa crus-galli; details: Pre-emergence
In short: as §2

[1] = Postemergence, Rate 125 g/ha, scale 0 to 10, 0 is no effect, 10 is complete control
[2] = Postemergence, Rate 250 g/ha, scale 0 to 10, 0 is no effect, 10 is complete control
[3] = Preemergence, Rate 62 g/ha, scale 0 to 10 (0 no effect, 10 complete control)
[4] = Rate 500 g/ha, Postemergence, scale 0 to 10, 0 no effect, 10 complete control
[5] = Rate 62 g/ha, flood test species, visual evaluation after twelve to sixteen days
[6] = Rate 125 g/ha, flood test species, scale 0 to 10 where 0 is no effect and 10 is complete control
[7] = Rate 250 g/ha, flood-test species, scale 0 to 10, 0 is no effect, 10 is complete control
[8] = Rate 500 g/ha, flood test species, scale 0 to 10 (0 no effect, 10 complete control)

CC(C)N(C(=O)n1oc(=O)n(C)c1=O)c1ccc(F)cc1F [Compound 368] was tested, and the “Plant response rating, B. signalgrass” value (surinam grass; [1]) was 5, the “Plant response rating, B. signalgrass” value (surinam grass; [2]) was 6 and the “Plant response rating, B. signalgrass” value (surinam grass; [3]) was 1. For the same molecule, the “B. signalgrass plant response rating (0 to 10 scale, 0 is no effect, 10 is complete control)” value (surinam grass; Preemergence, Rate 125 g/ha) was 6, the “B. signalgrass plant response rating” value (surinam grass; Preemergence, Rate 250 g/ha) was 8 and the “B. signalgrass plant response rating” value (surinam grass; Preemergence, Rate 500 g/ha) was 8. For the same molecule, the “B. signalgrass plant response rating” value (surinam grass; Rate 62 g/ha, Postemergence) was 0, the “Plant response rating, B. signalgrass” value (surinam grass; [4]) was 7 and the “Plant response rating, Cocklebur” value (cocklebur; [1]) was 2. The “Plant response rating, Cocklebur” value (cocklebur; [2]) was 3, the “Plant response rating, Cocklebur” value (cocklebur; [3]) was 0 and the “Cocklebur plant response rating (0 to 10 scale)” value (cocklebur; Preemergence, Rate 125 g/ha) was 0. For the same molecule, the “Cocklebur plant response rating” value (cocklebur; Preemergence, Rate 250 g/ha) was 0, the “Cocklebur plant response rating” value (cocklebur; Preemergence, Rate 500 g/ha) was 0 and the “Cocklebur plant response rating” value (cocklebur; Rate 62 g/ha, Postemergence) was 0. For the same molecule, the “Plant response rating, Cocklebur” value (cocklebur; [4]) was 5, the “Plant response rating, Corn” value (corn; [1]) was 5 and the “Plant response rating, Corn” value (corn; [2]) was 6. For the same molecule, the “Plant response rating, Corn” value (corn; [3]) was 3, the “Corn plant response rating (0 to 10 scale)” value (corn; Preemergence, Rate 125 g/ha) was 6 and the “Corn plant response rating” value (corn; Preemergence, Rate 250 g/ha) was 7. The “Corn plant response rating” value (corn; Preemergence, Rate 500 g/ha) was 10, the “Corn plant response rating” value (corn; Rate 62 g/ha, Postemergence) was 0 and the “Plant response rating, Corn” value (corn; [4]) was 7. The “Plant response rating, Crabgrass” value (crabgrass; [1]) was 8, the “Plant response rating, Crabgrass” value (crabgrass; [2]) was 8 and the “Plant response rating, Crabgrass” value (crabgrass; [3]) was 10. For the same molecule, the “Crabgrass plant response rating (0 to 10 scale)” value (crabgrass; Preemergence, Rate 125 g/ha) was 10, the “Crabgrass plant response rating” value (crabgrass; Preemergence, Rate 250 g/ha) was 10 and the “Crabgrass plant response rating” value (crabgrass; Preemergence, Rate 500 g/ha) was 10. For the same molecule, the “Crabgrass plant response rating” value (crabgrass; Rate 62 g/ha, Postemergence) was 6, the “Plant response rating, Crabgrass” value (crabgrass; [4]) was 8 and the “Plant response rating, Giant foxtail” value (giant foxtail; [1]) was 8. The “Plant response rating, Giant foxtail” value (giant foxtail; [2]) was 9, the “Plant response rating, Giant foxtail” value (giant foxtail; [3]) was 10 and the “Giant foxtail plant response rating (0 to 10 scale)” value (giant foxtail; Preemergence, Rate 125 g/ha) was 10. The “Giant foxtail plant response rating” value (giant foxtail; Preemergence, Rate 250 g/ha) was 10, the “Giant foxtail plant response rating” value (giant foxtail; Preemergence, Rate 500 g/ha) was 10 and the “Giant foxtail plant response rating” value (giant foxtail; Rate 62 g/ha, Postemergence) was 8. For the same molecule, the “Plant response rating, Giant foxtail” value (giant foxtail; [4]) was 9, the “Plant response rating, Morningglory” value (morningglory; [1]) was 4 and the “Plant response rating, Morningglory” value (morningglory; [2]) was 5. For the same molecule, the “Plant response rating, Morningglory” value (morningglory; [3]) was 0, the “Morningglory plant response rating (0 to 10 scale)” value (morningglory; Preemergence, Rate 125 g/ha) was 1 and the “Morningglory plant response rating” value (morningglory; Preemergence, Rate 250 g/ha) was 3. For the same molecule, the “Morningglory plant response rating” value (morningglory; Preemergence, Rate 500 g/ha) was 5, the “Morningglory plant response rating” value (morningglory; Rate 62 g/ha, Postemergence) was 2 and the “Plant response rating, Morningglory” value (morningglory; [4]) was 7. For the same molecule, the “Plant response rating, Redroot pigweed” value (pigweed; [1]) was 3, the “Plant response rating, Redroot pigweed” value (pigweed; [2]) was 4 and the “Plant response rating, Redroot pigweed” value (pigweed; [3]) was 10. The “Redroot pigweed plant response rating (0 to 10 scale)” value (pigweed; Preemergence, Rate 125 g/ha) was 10, the “Redroot pigweed plant response rating” value (pigweed; Preemergence, Rate 250 g/ha) was 10 and the “Redroot pigweed plant response rating” value (pigweed; Preemergence, Rate 500 g/ha) was 10. For the same molecule, the “Redroot pigweed plant response rating” value (pigweed; Rate 62 g/ha, Postemergence) was 2, the “Plant response rating, Redroot pigweed” value (pigweed; [4]) was 7 and the “Plant response rating, Rape” value (rape; [1]) was 0. For the same molecule, the “Plant response rating, Rape” value (rape; [2]) was 2, the “Plant response rating, Rape” value (rape; [3]) was 0 and the “Rape plant response rating (0 to 10 scale)” value (rape; Preemergence, Rate 125 g/ha) was 0. For the same molecule, the “Rape plant response rating” value (rape; Preemergence, Rate 250 g/ha) was 6, the “Rape plant response rating” value (rape; Preemergence, Rate 500 g/ha) was 10 and the “Rape plant response rating” value (rape; Rate 62 g/ha, Postemergence) was 0. The “Plant response rating, Rape” value (rape; [4]) was 5, the “Plant response rating, Soybean” value (soybean; [1]) was 5 and the “Plant response rating, Soybean” value (soybean; [2]) was 5. The “Plant response rating, Soybean” value (soybean; [3]) was 0, the “Soybean plant response rating (0 to 10 scale)” value (soybean; Preemergence, Rate 125 g/ha) was 2 and the “Soybean plant response rating” value (soybean; Preemergence, Rate 250 g/ha) was 7. The “Soybean plant response rating” value (soybean; Preemergence, Rate 500 g/ha) was 8, the “Soybean plant response rating” value (soybean; Rate 62 g/ha, Postemergence) was 4 and the “Plant response rating, Soybean” value (soybean; [4]) was 5. For the same molecule, the “Plant response rating, Sugarbeets” value (sugar beet; [1]) was 0, the “Plant response rating, Sugarbeets” value (sugar beet; [2]) was 2 and the “Plant response rating, Sugarbeets” value (sugar beet; [3]) was 6. The “Sugarbeets plant response rating (0 to 10 scale)” value (sugar beet; Preemergence, Rate 125 g/ha) was 8, the “Sugarbeets plant response rating” value (sugar beet; Preemergence, Rate 250 g/ha) was 10 and the “Sugarbeets plant response rating” value (sugar beet; Preemergence, Rate 500 g/ha) was 10. The “Sugarbeets plant response rating” value (sugar beet; Rate 62 g/ha, Postemergence) was 0, the “Plant response rating, Sugarbeets” value (sugar beet; [4]) was 3 and the “Plant response rating, Wild oats” value (wild oat; [1]) was 0. For the same molecule, the “Plant response rating, Wild oats” value (wild oat; [2]) was 3, the “Plant response rating, Wild oats” value (wild oat; [3]) was 4 and the “Wild oats plant response rating (0 to 10 scale)” value (wild oat; Preemergence, Rate 125 g/ha) was 9. For the same molecule, the “Wild oats plant response rating” value (wild oat; Preemergence, Rate 250 g/ha) was 10, the “Wild oats plant response rating” value (wild oat; Preemergence, Rate 500 g/ha) was 10 and the “Wild oats plant response rating” value (wild oat; Rate 62 g/ha, Postemergence) was 0. The “Plant response rating, Wild oats” value (wild oat; [4]) was 5, the “Plant response rating, Nutsedge” value (purple nutsedge; [1]) was 0 and the “Plant response rating, Nutsedge” value (purple nutsedge; [2]) was 0. The “Plant response rating, Nutsedge” value (purple nutsedge; [3]) was 0, the “Nutsedge plant response rating (0 to 10 scale)” value (purple nutsedge; Preemergence, Rate 125 g/ha) was 2 and the “Nutsedge plant response rating” value (purple nutsedge; Preemergence, Rate 250 g/ha) was 10. For the same molecule, the “Nutsedge plant response rating” value (purple nutsedge; Preemergence, Rate 500 g/ha) was 10, the “Nutsedge plant response rating” value (purple nutsedge; Rate 62 g/ha, Postemergence) was 0 and the “Plant response rating, Nutsedge” value (purple nutsedge; [4]) was 0. The “Plant response rating, Rice (0 to 10 scale, 0 is no effect, 10 is complete control)” value (rice; [5]) was 0, the “Rice plant response rating” value (rice; [6]) was 0 and the “Rice plant response rating” value (rice; [7]) was 0. The “Rice plant response rating” value (rice; [8]) was 5, the “Plant response rating, S. Flatsedge (0 to 10 scale, 0 is no effect, 10 is complete control)” value (smallflower flatsedge; [5]) was 0 and the “S. Flatsedge plant response rating” value (smallflower flatsedge; [6]) was 0. For the same molecule, the “S. Flatsedge plant response rating” value (smallflower flatsedge; [7]) was 2, the “S. Flatsedge plant response rating” value (smallflower flatsedge; [8]) was 4 and the “Plant response rating, Ducksalad (0 to 10 scale, 0 is no effect, 10 is complete control)” value (duck salad; [5]) was 0. For the same molecule, the “Ducksalad plant response rating” value (duck salad; [6]) was 0, the “Ducksalad plant response rating” value (duck salad; [7]) was 0 and the “Ducksalad plant response rating” value (duck salad; [8]) was 0. The “Plant response rating, Barnyardgrass (0 to 10 scale, 0 is no effect, 10 is complete control)” value (bamyardgrass; [5]) was 0, the “Barnyardgrass plant response rating” value (bamyardgrass; [6]) was 0 and the “Barnyardgrass plant response rating” value (bamyardgrass; [7]) was 0. For the same molecule, the “Barnyardgrass plant response rating” value (bamyardgrass; [8]) was 7.

Reference: patent publication US6737383B1, “Herbicidal oxadiazolidines” (priority 1999, dated 2004)
